Measured values reported in patent US20220170944A1, “MATERIALS AND METHODS FOR IDENTIFYING AND TREATING EOSINOPHILIC DISORDERS” (The Regents of the University of California, priority 2019, published 2022).

Assays:
[1] = cited from earlier work
[2] = system: EoE fibroblasts and esophageal epithelial cells; test: COMP expression in cells treated in vitro with recombinant TGFb1; format: cell-based, human; settings: p<0.0001
Protocol: Primary esophageal fibroblasts from EoE patients were used. The fibroblast were treated in vitro with recombinant TGFb1. […] Biopsies were scored using a standardized histology score. […] COMP expression correlated with fibrosis (r=[…]), basal zone hyperplasia (r=0.59, p<0.0001), and eosinophilia (r=0.54, p<0.0001).

Row | Molecule | tolerability / drug-related adverse events compared to placebo [1] | COMP expression induction [2]
1 | CCc1ccc(CCOc2ccc(CC3SC(=O)NC3=O)cc2)nc1 (centres unmarked) [Pioglitazone, pioglitazone] | no major drug-related adverse events | 
2 | TGFb1: recombinant TGFb1, the canonical pro-fibrotic molecule transforming growth factor-beta-1 |  | up to 6000 fold
